From US9856230B2 (University of Sunderland, priority 2012, dated 2018)

Key:
human T-cells [1] = experiment: Annexin V-Pe assay (apoptosis/necrosis)
Source text: (§1) To determine if the analogues were causing apoptosis or necrosis, an Annexin V-Pe assay was used. […] The annexin V is attached to a fluorescent probe that is used for detection by flow cytometry. […] The assay is also used in conjugation with 7-aminoactinomycin D (7-AAD). […] As the plasma membrane becomes increasingly permeable, 7-AAD can move readily across the cell membrane and bind to cellular DNA, thereby providing a way of identifying cells that have lost their membrane integrity; however, when the cell is viable or undergoing early stages of apoptosis, it is impermeable to 7-AAD.

[2] = molecular target: T1, Trx system (thioredoxin/thioredoxin reductase) (Homo sapiens, UniProt Q16881); experiment: Thioredoxin/thioredoxin reductase insulin reduction assay; type: biochemical
T1 sequence (Q16881 151-649 limits assumed): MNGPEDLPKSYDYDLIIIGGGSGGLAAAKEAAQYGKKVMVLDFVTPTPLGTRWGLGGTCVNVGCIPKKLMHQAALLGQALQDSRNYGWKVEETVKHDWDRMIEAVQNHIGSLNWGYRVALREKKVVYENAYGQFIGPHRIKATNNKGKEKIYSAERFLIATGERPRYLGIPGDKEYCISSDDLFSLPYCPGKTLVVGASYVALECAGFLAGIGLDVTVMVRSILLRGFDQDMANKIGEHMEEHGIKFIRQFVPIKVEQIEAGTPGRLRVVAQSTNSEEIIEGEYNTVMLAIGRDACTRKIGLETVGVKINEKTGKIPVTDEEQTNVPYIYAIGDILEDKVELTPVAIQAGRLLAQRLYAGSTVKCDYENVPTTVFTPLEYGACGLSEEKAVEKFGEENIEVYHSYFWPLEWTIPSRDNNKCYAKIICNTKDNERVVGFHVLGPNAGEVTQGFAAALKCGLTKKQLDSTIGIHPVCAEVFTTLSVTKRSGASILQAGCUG
Method: Thioredoxin/thioredoxin reductase inhibition was measured using the insulin reduction assay (Stevens, M. F. G., Pallis, M., Bradshaw, T. D., Westwell, A. D., Grundy, M., Russell, N, “Induction of apoptosis without redox catastrophe by thioredoxin-inhibitory compounds”, Biochem. Pharmacol. (2003) 66, 1695-1705). […] The first part of the assay involves TrxR reducing oxidized Trx via NADPH. The reduced Trx then reduces disulfide bonds in the insulin, leaving exposed thiol groups, as summarized by the Trx reaction scheme.
The addition of dithionitrobenzoic acid (DTNB) to the free thiol groups of the insulin cleaves the disulfide bond in the DTNB which gives rise to a yellow colour (DTNB reaction scheme). The yellow colour is observed under basic conditions due to the conjugation of electrons between the thiolate anion and the nitro group of thionitrobenzoic acid (TNB). The level of thioredoxin/thioredoxin reductase inhibitory activity is […] proportional to the intensity of the yellow colour.
Addition of DTNB to reduced insulin produces thionitrobenzoic acid (TNB) and a mixed insulin disulfide. DTNB has very little absorbance, but under mild basic conditions TNB forms an anion that gives an intense yellow colour at 412 nm.
Synthesized compounds were tested for thioredoxin/thioredoxin reductase activity using the thioredoxin/thioredoxin reductase insulin assay described above under the heading “Assays”. The compounds were also tested for antiproliferative activity using the MTT assay described above under the heading “Assays”. Theoretical C log P values for the compounds were calculated using ChemDraw. The C log P of a compound is the logarithm of the compound's partition coefficient between n-octanol and water log(coctanol/cwater) and represents a measure of the compound's hydrophilicity and hydrophobicity. […]

[3] = test system: HPV-16 immortalized keratinocyte cell line (CCD-1106 KERTr); experiment: cells; type: cell-based; details: Homo sapiens; CCD-1106 KERTr keratinocytes; read-out: MTT GI50;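 note: growth inhibition read as spectrophotometric formazan colour from mitochondrial dehydrogenase cleavage of MTT, proportional to viable cell number, modelling psoriatic hyperproliferation, lower values mean stronger antiproliferative activity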
Source text: The assay is based on the ability of a mitochondrial dehydrogenase enzyme to cleave the tetrazolium rings of the yellow MTT to form dark blue formazan crystals (MTT reaction scheme). These crystals are mostly impermeable to cell membranes and, consequently, they accumulate in healthy viable cells. The addition of detergent solubilizes the cells, which results in the liberation of purple formazan crystals. The number of viable cells is directly proportional to the level of purple formazan produced. This colour change can be measured by a spectrophotometer enabling quantification of changes in cellular proliferation. Compound activity measured by the MTT assay (or other proliferation related assay) may be given as a GI50 value.
A human papilloma virus-16 (HPV-16) immortalized keratinocyte cell line (CCD-1106 KERTr) was used in the MTT cell viability assay.
Antiproliferative activity is indicated by the MTT GI50 (μM), where a lower value indicates higher activity.

human T-cells [4] = experiment: CFSE proliferation assay; type: cell-based; details: 2000 ng per mL
Source text: Carboxyfluorescein diacetate succinimidyl ester (56a) (CFSE) is a cell permeable compound which readily enters the cell, upon which, the ester group is cleaved by esterases to produce a fluorescent compound (known as carboxyfluorescein succinimidyl ester (56b)) that is less cell permeable (see CFSE reaction scheme). As cells divide, the carboxyfluorescein succinimidyl ester (56b) is split equally between the daughter cells, which results in reduced carboxyfluorescein succinimidyl ester (56b) signal detection with each subsequent cell division (FIG. 2). The attenuation of the signal gives an indication of the proliferative ability of the cells.
For a compound to show good antiproliferative properties in the CFSE assay, the majority of the cells should remain in the parent state (as per division 0 in FIG. 2). […] As cell division occurs, the carboxyfluorescein succinimidyl ester (56b) is split equally between daughter cells, which results in attenuated signal detection.
CFSE labeled T-cells were treated with compound (33f) or control (no compound added). In the control experiment the majority of cells reached the fifth division (proliferation index of 5.62). […] The PI is the sum of the cells in all generations divided by the calculated number of the original parent cells.

human T-cells [5] = test system: human T-cells
Source text: as §1

in vitro = details: human, Viable Cells (%)
Source text: as §1

What does the source list for Cc1ccc(S(=O)(=O)Nc2ccc(NC(=O)c3ccco3)cc2NS(=O)(=O)c2ccc(C)cc2)cc1 [Compound (33f), N-(3,4-bis-(toluene-4-sulfonylamino)phenyl)-2-furamide]?
Early Apoptotic Cells (%) (human T-cells [1]; annexin V positive, 7-AAD negative, control 29): 31%; Late Apoptotic/Necrotic Cells (%) (human T-cells [1]; stain with both reagents, control 15): 13%; inhibition at 500 µM ([2]; compound at 500 μM, read-out: Inhib. (%) Trx Syst. at 500 μM): 93.7%; IC50 ([2]; insulin reduction assay, read-out: Trx System IC50): 37 µM; GI50 [3]: 10.8 µM; division state of CFSE labeled T-cells (human T-cells [4]; control: majority reached the fifth division): the majority of cells remained in the parent state; proliferation index (PI) (human T-cells [4]; CFSE labeled T-cells, control 5.62): 1.36; Viable Cells (%) (human T-cells [5]): 46%; viability (in vitro): 37%
